Experimental data taken from publication PMC2691528 (European Journal of Nuclear Medicine and Molecular Imaging, 2009).
“Also recorded” adds a separate entry of the source.

How the values were obtained:
[1] = molecular target: sigma-1 receptors in tumour and brain (Rattus norvegicus, UniProt Q9R0C9); test: microPET scanning of 11C-SA4503 in C6 glioma-bearing Wistar rats
[2] = Ex vivo biodistribution of 11C-SA4503 in C6 glioma-bearing Wistar rats; details: for SUV of 11C, C6 tumour / SUV of 11C, Cerebellum / SUV of 11C, Cerebral cortex: 60 min after injection
[3] = molecular target: cellular sigma receptors (C6 rat glioma cells) (Rattus norvegicus, UniProt Q9R0C9); test: Competition with 11C-SA4503 binding to intact C6 glioma cell monolayers; details: for competition with 11C-SA4503 for binding to cellular sigma receptors: 50 µM competitor added to normal growth medium (DMEM with 7.5% FCS); for reduction of 11C-SA4503 radioligand binding to C6 cells: 50 µM competitor, steroid-free medium; for rank order of potency as competitor of 11C-SA4503 binding: C6 cells, both normal and steroid-depleted medium, 50 µM
Sequence of cellular sigma receptors (C6 rat glioma cells) (Q9R0C9 whole entry): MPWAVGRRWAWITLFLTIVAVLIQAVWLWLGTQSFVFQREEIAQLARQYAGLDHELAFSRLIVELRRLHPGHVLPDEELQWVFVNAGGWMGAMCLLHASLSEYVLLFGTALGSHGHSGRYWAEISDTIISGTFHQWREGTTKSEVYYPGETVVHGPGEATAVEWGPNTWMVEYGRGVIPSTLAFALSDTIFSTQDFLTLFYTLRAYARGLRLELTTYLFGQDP

Plasma progesterone = details: female rats; cited from earlier work
[4] = tested on: endogenous steroid levels in the brain (progesterone, pregnenolone); details: male rats, sodium pentobarbital 0.2 mmol/kg i.p.; cited from earlier work
[5] = progesterone 3 x 10 mg i.p. in arachid oil vs arachid oil
[6] = prolonged pentobarbital anaesthesia, n = 5
[7] = prolonged pentobarbital anaesthesia vs control

Sequence of sigma-1 receptors in tumour and brain (Q9R0C9 whole entry): as above

Compound: CC(=O)[C@H]1CC[C@H]2[C@@H]3CCC4=CC(=O)CC[C@]4(C)[C@H]3CC[C@]12C [progesterone]
- effect on 11C-SA4503 tracer kinetics in blood pool (microPET) [1, 5]: did not significantly affect; also recorded: not accompanied by any significant change
- effect on 11C-SA4503 tracer kinetics in brain (microPET) [1, 5]: did not significantly affect
- decrease of sigma ligand (11C-SA4503) binding in C6 tumour (biodistribution) ([2]; progesterone 3 x 10 mg i.p. vs arachid oil, 60 min after tracer): 31%

Compound: C[C@]12CC[C@H](OS(=O)(=O)[O-])CC1=CC[C@@H]1[C@@H]2CC[C@]2(C)C(=O)CC[C@@H]12.[Na+] [DHEA-S, dehydroepiandrosterone 3-sulphate sodium salt]
- competition with 11C-SA4503 for binding to cellular sigma receptors [3]: no statistically significant effect
- reduction of 11C-SA4503 radioligand binding to C6 cells [3]: significant decrease
- rank order of potency as competitor of 11C-SA4503 binding [3]: progesterone > androstanolone = testosterone = allopregnanolone > DHEA-S

Compound: COc1ccc(CCN2CCN(CCCc3ccccc3)CC2)cc1OC [11C-SA4503]
- SUV of 11C, C6 tumour ([2]; control (arachid oil), n = 4): 0.83
- SUV of 11C, Cerebellum ([2]; control (arachid oil), n = 4): 1.66
- SUV of 11C, Cerebral cortex ([2]; control (arachid oil), n = 4): 1.50
- SUV of 11C, C6 tumour [2, 6]: 1.52
- SUV of 11C, Cerebellum [2, 6]: 2.41
- SUV of 11C, Cerebral cortex [2, 6]: 2.38

Compound: CCCC(C)C1(CC)C(=O)NC(=O)NC1=O (stereo not drawn) [pentobarbital]
- effect on kinetics of 11C-SA4503 radioactivity in blood pool (right lung) ([1]; prolonged pentobarbital anaesthesia (>3.5 h) vs short (<20 min)): unaffected; also recorded: did not significantly affect
- inhibition of 11C-SA4503 binding to C6 cells ([3]; up to 1 mM in normal medium): did not result in any inhibition
- effect on plasma progesterone (Plasma progesterone): decreased
- decline of endogenous steroid levels in the brain (progesterone, pregnenolone) [4]: > 70%
- effect on amount of 11C-SA4503 radioactivity in the liver (biodistribution) [2, 7]: significantly decreased
- effect on plasma levels of 11C-SA4503 radioactivity (biodistribution) [2, 7]: not changed
- effect on sigma ligand binding in C6 tumour, brain (cerebellum, cerebral cortex), bone, bone marrow, large intestine, blood cells and spleen (biodistribution) [2, 7]: significant increase

Compound: C[C@]12CCC(=O)C[C@@H]1CC[C@@H]1[C@@H]2CC[C@]2(C)[C@@H](O)CC[C@@H]12 [androstanolone, 5α-androstan-17β-ol-3-one]
- competition with 11C-SA4503 for binding to cellular sigma receptors [3]: measurable competition
- rank order of potency as competitor of 11C-SA4503 binding [3]: progesterone > androstanolone = testosterone = allopregnanolone > DHEA-S

Compound: C[C@]12CC[C@H]3[C@@H](CCC4=CC(=O)CC[C@@]43C)[C@@H]1CC[C@@H]2O [testosterone]
- competition with 11C-SA4503 for binding to cellular sigma receptors [3]: measurable competition
- reduction of 11C-SA4503 radioligand binding to C6 cells [3]: 40%
- rank order of potency as competitor of 11C-SA4503 binding [3]: progesterone > androstanolone = testosterone = allopregnanolone > DHEA-S
